Target: α-Syn (Homo sapiens, UniProt P37840)
Experiment: ThT binding assay, α-Syn aggregation inhibition
Type: biochemical
From the text: Parkinson’s disease (PD) is a neuronal disorder, mainly affects the motor system. α-Syn is a presynaptic neuronal protein that is linked neuropathologically to PD plays a vital role in the pathogenesis in a number of ways. Self-aggregation of α-Syn to form fibrillar aggregates and these toxic species mediate disruption of cellular homeostasis and cause neuronal death. These toxic aggregates affect various intracellular targets, especially synaptic function. In this context, NMI compounds of the present disclosure were used to study the possible modulation of α-Syn aggregation. The effect of NMI compounds (TGR63 and TGR64) on α-syn (100 µM) aggregation inhibition was studied through ThT binding assay. Experiments were performed at stoichiometric ratios (α-Syn:inhibitor) of 1:1, 1:2, and 1:5 with the fixed concentration of α-Syn at 100 µM.

CN(C)c1ccc(C#Cc2ccc3c4c(cccc24)C(=O)N(CC[N+](C)(C)C)C3=O)cc1 [TGR63, 2-(6-((4-(dimethylamino)phenyl)ethynyl)-1,3-dioxo-1H-benzo[de]isoquinolin-2(3H)-yl)-N,N,N-trimethylethan-1-aminium]
decrease in the formation of α-Syn aggregates (α-Syn:inhibitor 1:1, α-Syn 100 µM): ~ 54% | α-Syn aggregation decreased to (α-Syn:inhibitor 1:2, α-Syn 100 µM): 65% | α-Syn aggregation decreased to (α-Syn:inhibitor 1:5, α-Syn 100 µM): 93%
